In ChEMBL document CHEMBL2073770, “Induction of multidrug resistance gene expression in rat liver cells in response to acute treatment by the DNA-damaging agent methyl methanesulfonate” (Biochem Biophys Res Commun, 1998):

Biological target: ATP-dependent translocase ABCB1 (Rattus norvegicus, UniProt P43245)
Assay: TP_TRANSPORTER: RT-PCR in vitro, liver epithelial cells
Format: functional, tissue-based
Conditions: epithelial cell

ATP-dependent translocase ABCB1, sequence (P43245 whole entry): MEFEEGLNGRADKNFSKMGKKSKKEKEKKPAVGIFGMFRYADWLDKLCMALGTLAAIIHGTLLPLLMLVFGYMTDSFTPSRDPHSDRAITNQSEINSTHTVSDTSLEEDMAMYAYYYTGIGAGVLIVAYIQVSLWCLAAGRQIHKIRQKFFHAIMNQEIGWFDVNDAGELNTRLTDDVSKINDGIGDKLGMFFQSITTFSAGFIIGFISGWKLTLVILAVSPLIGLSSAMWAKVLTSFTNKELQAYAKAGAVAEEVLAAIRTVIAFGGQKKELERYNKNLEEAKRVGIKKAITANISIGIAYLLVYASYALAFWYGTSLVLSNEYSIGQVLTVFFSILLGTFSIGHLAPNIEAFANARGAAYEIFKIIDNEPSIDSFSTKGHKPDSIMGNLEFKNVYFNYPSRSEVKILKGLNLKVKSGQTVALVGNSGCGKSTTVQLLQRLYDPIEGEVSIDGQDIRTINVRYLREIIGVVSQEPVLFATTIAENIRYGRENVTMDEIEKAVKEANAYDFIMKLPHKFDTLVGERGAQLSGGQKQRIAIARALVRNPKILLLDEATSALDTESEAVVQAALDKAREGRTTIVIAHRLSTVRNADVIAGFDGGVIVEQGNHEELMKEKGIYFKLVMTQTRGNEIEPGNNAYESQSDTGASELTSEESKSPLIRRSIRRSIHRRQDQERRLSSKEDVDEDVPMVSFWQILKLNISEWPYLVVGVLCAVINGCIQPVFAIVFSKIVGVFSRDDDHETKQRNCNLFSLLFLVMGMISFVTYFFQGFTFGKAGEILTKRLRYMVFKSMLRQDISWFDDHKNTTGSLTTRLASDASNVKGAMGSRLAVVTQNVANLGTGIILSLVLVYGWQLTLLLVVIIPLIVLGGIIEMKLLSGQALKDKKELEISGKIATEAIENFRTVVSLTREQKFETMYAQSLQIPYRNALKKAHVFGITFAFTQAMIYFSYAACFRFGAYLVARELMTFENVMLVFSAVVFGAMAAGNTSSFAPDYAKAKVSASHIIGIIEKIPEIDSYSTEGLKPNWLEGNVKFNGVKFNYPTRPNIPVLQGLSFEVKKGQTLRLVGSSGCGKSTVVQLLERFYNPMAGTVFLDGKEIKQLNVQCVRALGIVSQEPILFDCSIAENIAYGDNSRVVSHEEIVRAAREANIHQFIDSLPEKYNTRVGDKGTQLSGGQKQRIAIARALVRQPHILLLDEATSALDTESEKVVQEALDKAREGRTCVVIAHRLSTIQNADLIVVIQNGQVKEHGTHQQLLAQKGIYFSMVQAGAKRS

Structure (SMILES): COS(C)(=O)=O [METHANESULFONIC ACID METHYL ESTER]
- Activity: inducer [+]
